Entries after “also recorded” stand apart in the source; their conditions may differ.
Key:
[1] = test system: mTNF reverse signaling (ERK1/2 phosphorylation) in mesenteric vascular smooth muscle cells; assay: ERK1/2 phosphorylation by western blot in microvascular smooth muscle cells cultured from mouse mesenteric arteries; format: cell-based; settings: for sTNFR1-Fc-induced ERK1/2 phosphorylation: microvascular smooth muscle cells, inhibitor concentration not given
Method: (§1) Referring to FIG. 1, microvascular smooth muscle cells were cultured form mouse mesenteric arteries and ERK1/2 phosphorylation was assessed by standard western blotting. Murine cremaster skeletal muscle resistance arteries were assessed by pressure myography. mTNF reverse signaling was induced by the intrinsically active TNF type I receptor construct, sTNFR1-Fc.
These findings were verified in cremaster skeletal muscle resistance arteries. […] Importantly, none of the above treatments affected agonist-induced vasoconstriction.
(§2) Referring to FIG. 3, mouse cremaster skeletal muscle resistance arteries were isolated and cannulated for pressure myography. Stepwise increases in transmural pressure (20-100 mmHg in 20 mmHg steps) elicit myogenic vasoconstriction. […] (FIG. 3d) CKI-7 is not effective in the absence of TNF signaling (i.e., TNF knockout arteries, TNF KO). (FIG. 3e) Phenylephrine-induced vasoconstriction in TNF KO arteries is not affected by CKI-7.

[2] = test system: mouse cremaster skeletal muscle resistance arteries; assay: Phenylephrine (agonist)-induced vasoconstriction in isolated cremaster resistance arteries; settings: for phenylephrine-induced vasoconstriction (vessel health): wild-type arteries treated in vitro
[3] = test system: ERK1/2 phosphorylation in cremaster resistance arteries; assay: ERK1/2 phosphorylation by western blot in isolated cremaster resistance arteries after pressure myography; set-up: species or system mouse
Description: as §2
Referring to FIG. 5, mouse cremaster skeletal muscle resistance arteries were isolated at mid-rest phase (ZT7) or mid-active phase (ZT19) and cannulated for pressure myography. One-step increases in transmural pressure (60 to 100 mmHg) elicit myogenic vasoconstriction. […] (FIG. 5c) Cremaster muscle resistance arteries underwent pressure myography and western blotting subsequently assessed ERK1/2 phosphorylation. […] (FIG. 5d) Representative western blot. (FIG. 5e) Resting diameter of the vessels is not affected by PF-670462. (FIG. 5f) Prior to administration of PF-670462, vessel health is intact as shown by robust vasoconstriction to phenylephrine. […] (FIG. 5h) Vessel health, indicated by robust phenylephrine-induced vasoconstriction, is not affected by PF-670462 administration.

[4] = test system: mTNF reverse signaling in cremaster skeletal muscle resistance arteries; assay: sTNFR1-Fc-stimulated vasoconstriction / mTNF reverse signaling in cremaster resistance arteries; set-up: species or system mouse
Method: as §1, §2

[5] = test system: mouse cremaster skeletal muscle resistance arteries; assay: Pressure myography of isolated cremaster skeletal muscle resistance arteries: myogenic responsiveness, compound applied in vitro; settings: for dose dependence of reduction in myogenic responsiveness: dose-response in vitro, n=4-6 vessels per dose
Method: as §1
Referring to FIG. 3, mouse cremaster skeletal muscle resistance arteries were isolated and cannulated for pressure myography. Stepwise increases in transmural pressure (20-100 mmHg in 20 mmHg steps) elicit myogenic vasoconstriction.
Referring to FIG. 4, mouse cremaster skeletal muscle resistance arteries were isolated and cannulated for pressure myography. Stepwise increases in transmural pressure (20-100 mmHg in 20 mmHg steps) elicit myogenic vasoconstriction.
Referring to FIG. 5, mouse cremaster skeletal muscle resistance arteries were isolated at mid-rest phase (ZT7) or mid-active phase (ZT19) and cannulated for pressure myography. One-step increases in transmural pressure (60 to 100 mmHg) elicit myogenic vasoconstriction. […] (FIG. 5c) Cremaster muscle resistance arteries underwent pressure myography and western blotting subsequently assessed ERK1/2 phosphorylation. […] (FIG. 5d) Representative western blot.
Referring to FIG. 6a to c, mice underwent myocardial infarction (ligation of the left-anterior descending coronary artery) or sham surgery. […] Cremaster skeletal muscle resistance arteries were isolated and cannulated for pressure myography.

[6] = Mean arterial blood pressure after acute injection; format: in vivo, mouse; settings: acute injection 30 mg/kg intraperitoneal, n=3 per group
CK1D/E = settings: read-out: published IC50; cited from earlier work
[7] = test system: cremaster skeletal muscle resistance arteries; assay: In vivo treatment of naive mice, then pressure myography of cremaster arteries; set-up: species or system mouse; settings: for myogenic responsiveness: naive mice, 24 hrs later, ZT7
Method: Referring to FIG. 6d to f, naive mice were treated with PF-670462 (30-50 mg/kg dissolved in 200 μL water, intraperitoneal injection) or vehicle (200 μL water). 24 hrs later, in mid-rest phase (ZT7), cremaster skeletal muscle resistance arteries underwent pressure myography. […] (FIG. 6e) Phenylephrine-induced vasoconstriction is not altered by in vivo application of PF-670462.

[8] = test system: heart failure (myocardial infarction) mice; assay: Chronic treatment of mice after myocardial infarction (heart failure) or sham surgery; format: in vivo, mouse; settings: 7 wks
Method: Referring to FIG. 6g to j, following myocardial infarction or sham surgery, mice were chronically treated with PF-670462 (30 mg/kg, intraperitoneal injection) or vehicle (DMSO) for 7 wks (5 days/wk). […] (FIG. 6h) HF-induced elevations in myogenic tone are normalized by chronic treatment with PF-670462. (FIG. 6i)
Phenylephrine-induced vasoconstriction is intact with chronic PF-670462 treatment. Reduced tone at lower concentrations of phenylephrine in the PF-670462-treated group is the result of changes in resting myogenic tone. (FIG. 6j) Cardiac output, the quantification of blood outflow from the heart assessed with echocardiography, is elevated with chronic PF-670462 treatment.

[9] = test system: mTNF reverse signaling in human embryonic kidney (HEK) cells; assay: mTNF reverse signaling (ERK1/2 phosphorylation) in transfected HEK cells stimulated with TNF antibody; format: cell-based; settings: HEK cells transfected 24 hrs, stimulated 5 min
Description: Importantly, the cytoplasmic tail of mTNF contains the casein kinase 1 (CK1) recognition site (S(P)-X-X-S) that is removed in Trunc TNF, indicating the necessity for CK1 binding in mTNF reverse signaling.

[10] = test system: skeletal muscle resistance arteries; settings: scavenging TNF; cited from earlier work
[11] = scavenging TNF; cited from earlier work
[12] = in vitro application, concentration not given
[13] = chronic treatment 30 mg/kg intraperitoneal

## NCCNS(=O)(=O)c1ccc(Cl)c2ccncc12 [CKI-7]
[1]; mesenteric vascular smooth muscle cells, inhibitor 1 μM
  ERK1/2 phosphorylation in response to sTNFRI-Fc: inhibited
[1]
  sTNFR1-Fc-induced ERK1/2 phosphorylation: abolished
[2]; TNF KO arteries
  phenylephrine-induced vasoconstriction in TNF KO arteries: not affected
[2]
  phenylephrine-induced vasoconstriction (vessel health): remains intact
[3]; isolated cremaster resistance arteries after pressure myography
  sTNFR1-Fc-stimulated ERK1/2 phosphorylation: inhibited
[4]; cremaster arteries, in vitro application
  sTNFR1-Fc-induced mTNF reverse signaling: abrogates
[4]; sTNFR1-Fc 100 ng/mL
  sTNFR1-Fc-stimulated vasoconstriction: prevented
[5]; 10 μM in vitro, transmural pressure 20-100 mmHg in 20 mmHg steps
  myogenic responsiveness: reduces myogenic responsiveness
[5]; TNF−/− (TNF KO) arteries, in vitro
  myogenic responsiveness in TNF knockout arteries: not effective
[5]
  dose dependence of reduction in myogenic responsiveness: dose-dependent reductions
[5]; [12]
  myogenic responsiveness: reduces myogenic responsiveness

## Nc1nccc(-c2c(-c3ccc(F)cc3)ncn2C2CCCCC2)n1 [PF-670462]
[6]
  mean arterial blood pressure (MAP): reduces mean arterial blood pressure
CK1D/E
  IC50: 7.7 to 14 nM
[1]
  sTNFR1-Fc-induced ERK1/2 phosphorylation: abolished
[2]; arteries from HF and sham mice, 550 nM in vitro
  phenylephrine-induced vasoconstriction: intact
[2]
  phenylephrine-induced vasoconstriction (vessel health): intact; also recorded: not affected
[7]; 30 mg/kg intraperitoneal
  myogenic responsiveness: reduce myogenic responsiveness
[7]; 50 mg/kg intraperitoneal
  myogenic responsiveness: reduce myogenic responsiveness
[7]; applied in vivo, dose not given
  myogenic responsiveness in isolated cremaster arteries: reduced myogenic responsiveness
[7]; in vivo application 30-50 mg/kg intraperitoneal
  phenylephrine-induced vasoconstriction: not altered
[3]; cremaster arteries isolated at ZT7 or ZT19
  ERK1/2 phosphorylation, ZT7 versus ZT19: reduces ERK1/2 phosphorylation to a greater extent during the rest phase (ZT7)
[8]; 30 mg/kg intraperitoneal, 5 days/wk
  HF-induced elevations in myogenic tone: normalized
[8]; [13]
  cardiac output (echocardiography): elevated
  phenylephrine-induced vasoconstriction: intact
[5]; 550 nM in vitro
  myogenic responsiveness: reduces myogenic responsiveness
[5]; 550 nM in vitro in bath, 8 weeks post myocardial infarction
  myogenic responsiveness in arteries from HF mice: normalizes myogenic responsiveness
[5]; 550 nM in vitro in bath, sham arteries
  myogenic tone in sham-operated mice: does not affect myogenic tone
[5]; 550 nM in vitro, 30 minutes, both HF and sham groups
  myogenic tone in arteries from HF and sham mice: attenuated to same level
[5]; 550 nM in vitro, repeated replacements of the incubating buffer
  reversibility of the reduction in myogenic responsiveness: reversible
[5]; 10 μM in vitro, ZT7, one-step pressure 60 to 100 mmHg
  myogenic responsiveness at mid-rest phase: reduces myogenic responsiveness only during the rest phase (ZT7)
[5]; 10 μM in vitro, ZT19, one-step pressure 60 to 100 mmHg
  myogenic responsiveness at mid-active phase: not during the active phase (ZT19)
[5]; ZT7, n=4-7 vessels per dose
  dose dependence of reduction in myogenic tone at mid-rest phase: dose-dependently reduces myogenic tone
[5]; ZT7/ZT19 arteries
  resting diameter of the vessels: not affected
[5]; ZT7/ZT19 arteries, before pressure stimulation
  vessel dilation: not affected
[5]
  dose dependence of reduction in myogenic responsiveness: dose-dependent decreases
[5]; [12]
  myogenic responsiveness: reduces myogenic responsiveness
[5]; wild-type (WT) arteries, compared with TNF knockout
  myogenic responsiveness in wild-type arteries: inhibits myogenic responsiveness

## Nc1ncnc2c1c(COc1cccc(Cl)c1)nn2C1CCOCC1 [PF-4800567]
[2]; 30 μM dose, corrected to baseline tone
  reduction in phenylephrine-induced vasoconstriction after correction to baseline tone: remains after correction to baseline tone
[2]; arteries treated at the 30 μM dose
  phenylephrine-induced vasoconstriction: reduced
[5]; 30 μM in vitro
  myogenic responsiveness: abrogates myogenic responsiveness
[5]
  dose dependence of reduction in myogenic responsiveness: dose-dependent reduction
[5]; fold greater than the IC50
  concentration inhibiting myogenic responses relative to the IC50: ~1000 ×

## Adalimumab
[9]
  mTNF reverse signaling (ERK1/2 phosphorylation): not stimulated unless the HEK cells express a tumour necrosis factor (TNF) plasmid construct

## Etanercept
[10]
  skeletal muscle resistance artery myogenic responsiveness: attenuates skeletal muscle resistance artery myogenic responsiveness
[11]
  systemic blood pressure: reduces systemic blood pressure

— patent US20220047598A1, “Use of Casein Kinase 1 Inhibitors For Treating Vascular Diseases” (Qanatpharma AG, priority 2018, published 2022)
